Assay [1] relates to LLC-PK1. The assay can be described thus: Inhibition of cisplatin-induced ERK phosphorylation in pig LLC-PK1 cells at 50 uM measured after 24 hrs in presence of cisplatin by western blot analysis. As to conditions: Sus scrofa. The assay is classed as cell-based. In general terms: A western blot detects proteins with antibodies after separation by electrophoresis.
In assay [2] the test system is LLC-PK1. The assay can be described thus: Protection against cisplatin-induced nephrotoxicity in pig LLC-PK1 cells assessed as inhibition of apoptosis by measuring decrease in cleaved caspase-3 level at 50 uM measured after 24 hrs in presence of cisplatin by western blot analysis. The assay is classed as functional, cell-based. As to conditions: Sus scrofa.
Assay [3] deals with LLC-PK1. The assay can be described thus: Protection against cisplatin-induced nephrotoxicity in pig LLC-PK1 cells assessed as cell viability at 50 uM measured after 24 hrs in presence of cisplatin. The assay is classed as functional. As to conditions: Sus scrofa, read-out: Activity.
For assay [4], the system named is LLC-PK1. Briefly: Protection against cisplatin-induced nephrotoxicity in pig LLC-PK1 cells assessed as inhibition of apoptosis by measuring reduction in green stained cells at 50 uM measured after 24 hrs in presence of cisplatin by Tali image based cytometric analysis. The settings on record: Sus scrofa. Type of assay: functional, cell-based.
For assay [5], the system named is LLC-PK1. The assay can be described thus: Inhibition of cisplatin-induced JNK phosphorylation in pig LLC-PK1 cells at 50 uM measured after 24 hrs in presence of cisplatin by western blot analysis. As to conditions: Sus scrofa. Type of assay: cell-based.
The test system of assay [6] is LLC-PK1. The assay can be described thus: Inhibition of cisplatin-induced p38 MAPK phosphorylation in pig LLC-PK1 cells at 50 uM measured after 24 hrs in presence of cisplatin by western blot analysis. Type of assay: cell-based. The settings on record: Sus scrofa.
Assay [7] deals with LLC-PK1. Briefly: Protection against cisplatin-induced nephrotoxicity in pig LLC-PK1 cells assessed as increase in cell viability measured after 24 hrs in presence of cisplatin. The assay is classed as functional, cell-based. The settings on record: Sus scrofa, dose 3.125-50 µM.
Assay [8] concerns LLC-PK1. The assay can be described thus: Protection against cisplatin-induced nephrotoxicity in pig LLC-PK1 cells assessed as inhibition of apoptosis by measuring red-stained dead cells at 50 uM measured after 24 hrs in presence of cisplatin by Tali image based cytometric analysis. Type of assay: functional, cell-based. As to conditions: Sus scrofa.
Assay [9] relates to LLC-PK1. The assay can be described thus: Protection against cisplatin-induced nephrotoxicity in pig LLC-PK1 cells assessed as cell viability at 1000 uM measured after 24 hrs in presence of cisplatin. As to conditions: Sus scrofa, read-out: Activity. Type of assay: functional.
In assay [10] the test system is LLC-PK1. The assay can be described thus: Protection against cisplatin-induced nephrotoxicity in pig LLC-PK1 cells assessed as increase in cell viability at 50 to 1000 uM measured after 24 hrs in presence of cisplatin. As to conditions: Sus scrofa, dose 50-1000 µM. Type of assay: functional, cell-based.

The source made the active and inactive calls. The rule behind the calls is not given here.

As for `COc1ccc([C@H]2[C@@H]3CCc4ccc(OC)cc4C3=NN2C(C)=O)cc1`, the inhibition result in assay [1], in [5] and in assay [6] was “Active” throughout. Also, the result in [2] and in assay [4] was Active. In addition, the viability at 50 µM in [3] stood at 84.5%.

Turning to `CN1C(=O)C(Cc2c[nH]c3ccccc23)NC1=S` (stereo not drawn) [NECROSTATIN], the Activity result in [7] is “Dose-Dependent Effect”. The inhibition entry in assay [1], in [5] and in assay [6] was “Active” in each case. For the same compound, in assay [8], the outcome was inactive. The result in assay [2] and in assay [4] was Active. Also, the viability at 50 µM in assay [3] turned out to be 90.5%.

With `COc1ccc([C@H]2[C@H]3CCc4ccc(OC)cc4C3=NN2C(C)=O)cc1`, in assay [7], the Activity entry was “Dose-Dependent Effect”. In addition, the inhibition result in [1], in assay [5] and in [6] was “Active” in each case. Moreover, the outcome in assay [2] and in [4] was Active. Moreover, in [3], the viability at 50 µM is 87.5%.

On to `CC(=O)N[C@@H](CS)C(=O)O` [ACETYLCYSTEINE], for which the viability at 1000 µM in [9] turned out to be 89.4%. Moreover, the Activity entry in assay [10] was “Dose-Dependent Effect”.

The values above are taken from ChEMBL document CHEMBL4825711, “Necrostatins regulate apoptosis, necroptosis, and inflammation in cisplatin-induced nephrotoxicity in LLC-PK1 cells” (2021).
